Experimental data: patent publication US5149365A, “Diorganotin compounds, and agents which have a bactericidal and fungicidal action and contain these compounds” (Schering Aktiengesellschaft, priority 1988, dated 1992)
Counter-ions that a name gives are not always drawn.

Experiments:
[1] = test system: Paecilomyces varioti; assay: Filter disk test, Paecilomyces varioti; assay type: cell-based; settings: 3 weeks, +30° C.
Method: (§1) The inhibition action against fungi, of the products according to the invention, was tested using the "filter disk test" (cf. Table 2). For this purpose, paper filter disks (.phi. 5.5 cm) were soaked in ethanolic solutions containing various amounts of active substance. After the filters had dried under room conditions, they were placed on Petri dishes containing plate-count agar which had been inoculated with a spore suspension. The nutrient medium used was biomalt agar 8° Bg, and the dishes were incubated for 3 weeks at +30° C. Thereafter, the sizes of the inhibition zones (distance of the fungal growth from the edge of the filter, in mm) around the samples were determined.

[2] = test system: Lentinus lepideus; assay: Filter disk test, Lentinus lepideus; assay type: cell-based; settings: 3 weeks, +30° C.
Method: as §1

[3] = test system: Proteus vulgaris; assay: Agar diffusion test, Proteus vulgaris; assay type: cell-based; settings: 0: no inhibition action
Method: (§2) DST agar was inoculated with 1 drop of a Muller-Hinton broth of the test organisms, diluted 1 : 10. After a prediffusion period of 2 hours at 22° C., the paper filters which had been soaked with solutions of active substance of various concentrations were placed on the agar. The inhibition zones (distance of the cloudy area from the edge of the paper filter in mm) were determined after an incubation time of 24 hours.

[4] = test system: Orfes; assay: EC50 in Orfes (DIN 38412, Part 15); assay type: in vivo
Excerpt: *Determination in accordance with DIN 38412, Part 15

[5] = test system: Escherichia coli; assay: Agar diffusion test, Escherichia coli; assay type: cell-based; settings: 0: no inhibition action
Method: as §2

[6] = test system: Daphnia; assay: EC50 in Daphnia (DIN 38412, Part 12); assay type: in vivo
Excerpt: **Determination in accordance with DIN 38412, Part 12.

[7] = Weight loss (release) on storage, 6 days at 65° C.; assay type: physicochemical; settings: for Weight loss: 6 days 65° C.
Method: As shown by the comparison above, the amount released into the environment during a storage period of 6 days at 65° C. of, for example, TBT-HDO, is nearly six times higher than in the case of DBT-HDO according to the invention.

[8] = test system: Cladosporum herbarum; assay: Filter disk test, Cladosporum herbarum; assay type: cell-based; settings: 3 weeks, +30° C.
Method: as §1

[9] = test system: Poria monticola; assay: Filter disk test, Poria monticola; assay type: cell-based; settings: 3 weeks, +30° C.
Method: as §1

[10] = test system: Bacillus subtilis; assay: Agar diffusion test, Bacillus subtilis; assay type: cell-based; settings: 0: no inhibition action
Method: as §2

[11] = test system: Staphilococcus aureaus; assay: Agar diffusion test, Staphilococcus aureaus; assay type: cell-based; settings: 0: no inhibition action
Method: as §2

[12] = test system: Coniophora puteana; assay: Wood block test against Coniophora puteana after leaching treatment (DIN 52 176, DIN EN 84); settings: lower: highest amount with attack (weight loss>3%); higher: lowest amount without attack; 16 weeks, 22° C.
Excerpt: To compare the fungicidal action against Basidiomycetes, small blocks made of pine sapwood (5 cm×2.5 cm×1.5 cm, direction of fiber: 5 cm) were soaked with solutions of graduated concentrations of the active substance DBT-HDO (cf. Example 1) in acetone, based on DIN 52 176.
For comparison reasons, the starting materials di-n-butyltin dichloride and the K salt of N-cyclohexyl-N'-hydroxydiazenium oxide were included in the investigations.
The soaked blocks were kept for 4 weeks in an environmentally-controlled chamber at an air temperature of 20° C. and a relative atmospheric humidity of 65%. They were then subjected to a leaching procedure in accordance with DIN EN 84. […] The effect of the fungi on the individual blocks was determined by calculating the weight losses (based on the dry weights). The limits which were determined in this way and which are expressed by two figures, the lower of which being the highest amount of protective agent (in kg/m^3 of wood) at which an attack still took place (weight loss>3%), and the higher denoting the lowest amount from which an attack no longer took place, are listed in Table 3.

[13] = test system: rats; assay: LD50 oral (rats); assay type: in vivo
[14] = test system: bacteria and fungi; settings: prior art; cited from earlier work
[15] = 0.1% active substance in soaking solution
[16] = 0.3% active substance in soaking solution
[17] = 0.5% active substance in soaking solution

## CCC[CH2][Sn]([CH2]CCC)([O]N(N=O)C1CCCCC1)[O]N(N=O)C1CCCCC1 [DBT-HDO, bis(N-cyclohexyldiazeniumdioxy)di-n-butyltin]
[1]; 0.5% content of the solution
  inhibition zone (IZ): 6-8 mm
[1]; 1% content of the solution
  inhibition zone (IZ): 8-10 mm
[1]; 2% content of the solution
  inhibition zone (IZ): 10-12 mm
[2]; 0.5% content of the solution
  inhibition zone (IZ): > 15 mm
[2]; 1% content of the solution
  inhibition zone (IZ): > 15 mm
[2]; 2% content of the solution
  inhibition zone (IZ): > 15 mm
[3]; [15]
  inhibition zone: 12 mm
[3]; [16]
  inhibition zone: 13 mm
[3]; [17]
  inhibition zone: 12 mm
[4]
  EC50 in Orfes: 0.18 mg/l of water
[5]; [15]
  inhibition zone: 0 mm
[5]; [16]
  inhibition zone: 2 mm
[5]; [17]
  inhibition zone: 3 mm
[6]
  EC50 in Daphnia: 4.9 mg/l of water
[7]
  Weight loss: 2.3%
[8]; 0.5% content of the solution
  inhibition zone (IZ): 3-5 mm
[8]; 1% content of the solution
  inhibition zone (IZ): 5-6 mm
[8]; 2% content of the solution
  inhibition zone (IZ): 8-10 mm
[9]; 0.5% content of the solution
  inhibition zone (IZ): 6-8 mm
[9]; 1% content of the solution
  inhibition zone (IZ): 12-12 mm
[9]; 2% content of the solution
  inhibition zone (IZ): 12-15 mm
[10]; [15]
  inhibition zone: 6 mm
[10]; [16]
  inhibition zone: 11 mm
[10]; [17]
  inhibition zone: 15 mm
[11]; [15]
  inhibition zone: 8 mm
[11]; [16]
  inhibition zone: 10 mm
[11]; [17]
  inhibition zone: 10 mm
[12]
  Limits against Coniophora puteana after leaching treatment: 0.51-0.88 kg of product per m^3 of wood

## CCCCCCC[CH2][Sn]([CH2]CCCCCCC)([O]N(N=O)C1CCCCC1)[O]N(N=O)C1CCCCC1 [DOT-HDO, bis(N-cyclohexyldiazeniumdioxy)di-n-octyltin]
[1]; 0.5% content of the solution
  inhibition zone (IZ): 5-6 mm
[1]; 1% content of the solution
  inhibition zone (IZ): 8-10 mm
[1]; 2% content of the solution
  inhibition zone (IZ): 10-12 mm
[2]; 0.5% content of the solution
  inhibition zone (IZ): > 15 mm
[2]; 1% content of the solution
  inhibition zone (IZ): > 15 mm
[2]; 2% content of the solution
  inhibition zone (IZ): > 15 mm
[8]; 0.5% content of the solution
  inhibition zone (IZ): 10-12 mm
[8]; 1% content of the solution
  inhibition zone (IZ): 12-15 mm
[8]; 2% content of the solution
  inhibition zone (IZ): > 15 mm
[9]; 0.5% content of the solution
  inhibition zone (IZ): 5-6 mm
[9]; 1% content of the solution
  inhibition zone (IZ): 8-10 mm
[9]; 2% content of the solution
  inhibition zone (IZ): 8-10 mm

## CCCC[CH2][Sn]([CH2]CCCC)([O]N(N=O)C1CCCCC1)[O]N(N=O)C1CCCCC1 [DPT-HDO, bis(N-cyclohexyldiazeniumdioxy)di-n-pentyltin]
[1]; 0.5% content of the solution
  inhibition zone (IZ): 6-8 mm
[1]; 1% content of the solution
  inhibition zone (IZ): 8-10 mm
[1]; 2% content of the solution
  inhibition zone (IZ): 10-12 mm
[2]; 0.5% content of the solution
  inhibition zone (IZ): > 15 mm
[2]; 1% content of the solution
  inhibition zone (IZ): > 15 mm
[2]; 2% content of the solution
  inhibition zone (IZ): > 15 mm
[8]; 0.5% content of the solution
  inhibition zone (IZ): 2-3 mm
[8]; 1% content of the solution
  inhibition zone (IZ): 5-7 mm
[8]; 2% content of the solution
  inhibition zone (IZ): 6-8 mm
[9]; 0.5% content of the solution
  inhibition zone (IZ): 6-8 mm
[9]; 1% content of the solution
  inhibition zone (IZ): 8-10 mm
[9]; 2% content of the solution
  inhibition zone (IZ): 10-12 mm

## CCC[CH2][Sn]([Cl])([Cl])[CH2]CCC [Di-n-butyltin dichloride]
[2]; 1% content of the solution
  Growth: + +

## [O-][N+](=NO)C1CCCCC1 [K-HDO, potassium salt of N-cyclohexyl-N'-hydroxydiazenium oxide]
[1]; Paecilomyces, 504 h, 0.5% content of the solution, read-out: inhibition zone (IZ)
  zone of inhibition at 0.5 %: 5 to 7 mm
[1]; Paecilomyces, 504 h, 1% content of the solution, read-out: inhibition zone (IZ)
  zone of inhibition at 1 %: 6 to 8 mm
[1]; Paecilomyces, 504 h, 2% content of the solution, read-out: inhibition zone (IZ)
  zone of inhibition at 2 %: 8 to 10 mm
[2]; Neolentinus lepideus, 504 h, 0.5% content of the solution, read-out: inhibition zone (IZ)
  zone of inhibition at 0.5 %: 4 to 6 mm
[2]; Neolentinus lepideus, 504 h, 1% content of the solution, read-out: inhibition zone (IZ)
  zone of inhibition at 1 %: 10 to 12 mm
[2]; Neolentinus lepideus, 504 h, 2% content of the solution, read-out: inhibition zone (IZ)
  zone of inhibition at 2 %: > 15 mm
[3]; Proteus vulgaris, 24 h, 0.1% active substance in soaking solution
  zone of inhibition at 0.1 % strength: 0 mm
[3]; Proteus vulgaris, 24 h, 0.3% active substance in soaking solution
  zone of inhibition at 0.3 % strength: 0 mm
[3]; Proteus vulgaris, 24 h, 0.5% active substance in soaking solution
  zone of inhibition at 0.5 % strength: 0 mm
[5]; Escherichia coli, 24 h, 0.1% active substance in soaking solution
  zone of inhibition at 0.1 % strength: 0 mm
[5]; Escherichia coli, 24 h, 0.3% active substance in soaking solution
  zone of inhibition at 0.3 % strength: 0 mm
[5]; Escherichia coli, 24 h, 0.5% active substance in soaking solution
  zone of inhibition at 0.5 % strength: 0 mm
[8]; 504 h, 0.5% content of the solution, read-out: inhibition zone (IZ)
  zone of inhibition at 0.5 %: 4 to 6 mm
[8]; 504 h, 1% content of the solution, read-out: inhibition zone (IZ)
  zone of inhibition at 1 %: 8 to 10 mm
[8]; 504 h, 2% content of the solution, read-out: inhibition zone (IZ)
  zone of inhibition at 2 %: 10 to 12 mm
[9]; Poria monticola, 504 h, 0.5% content of the solution, read-out: inhibition zone (IZ)
  zone of inhibition at 0.5 %: 2 to 3 mm
[9]; Poria monticola, 504 h, 1% content of the solution, read-out: inhibition zone (IZ)
  zone of inhibition at 1 %: 6 to 8 mm
[9]; Poria monticola, 504 h, 2% content of the solution, read-out: inhibition zone (IZ)
  zone of inhibition at 2 %: 10 to 12 mm
[10]; Bacillus subtilis, 24 h, 0.1% active substance in soaking solution
  zone of inhibition at 0.1 % strength: 4 mm
[10]; Bacillus subtilis, 24 h, 0.3% active substance in soaking solution
  zone of inhibition at 0.3 % strength: 4 mm
[10]; Bacillus subtilis, 24 h, 0.5% active substance in soaking solution
  zone of inhibition at 0.5 % strength: 9 mm
[11]; 24 h, 0.1% active substance in soaking solution
  zone of inhibition at 0.1 % strength: 8 mm
[11]; 24 h, 0.3% active substance in soaking solution
  zone of inhibition at 0.3 % strength: 14 mm
[11]; 24 h, 0.5% active substance in soaking solution
  zone of inhibition at 0.5 % strength: 19 mm
[12]
  Limits against Coniophora puteana after leaching treatment: 1.8-3.4 kg of product per m^3 of wood

## CCC[CH2][Sn]([CH2]CCC)([CH2]CCC)[O]N(N=O)C1CCCCC1 [TBT-HDO]
[1]; 0.5% content of the solution
  inhibition zone (IZ): 10-12 mm
[1]; 1% content of the solution
  inhibition zone (IZ): > 15 mm
[1]; 2% content of the solution
  inhibition zone (IZ): > 15 mm
[2]; 0.5% content of the solution
  inhibition zone (IZ): > 15 mm
[2]; 1% content of the solution
  inhibition zone (IZ): > 15 mm
[2]; 2% content of the solution
  inhibition zone (IZ): > 15 mm
[3]; [15]
  inhibition zone: 6 mm
[3]; [16]
  inhibition zone: 7 mm
[3]; [17]
  inhibition zone: 7 mm
[4]
  EC50 in Orfes: 0.035 mg/l of water
[13]
  LD50 oral (rats): 63 mg/kg of body wt.
[5]; [15]
  inhibition zone: 0 mm
[5]; [16]
  inhibition zone: 0 mm
[5]; [17]
  inhibition zone: 0 mm
[6]
  EC50 in Daphnia: 0.020 mg/l of water
[7]
  Weight loss: 12.8%
[7]; storage 6 days at 65° C., TBT-HDO vs DBT-HDO
  amount released into the environment, times higher than DBT-HDO: six
[8]; 0.5% content of the solution
  inhibition zone (IZ): 10-12 mm
[8]; 1% content of the solution
  inhibition zone (IZ): > 15 mm
[8]; 2% content of the solution
  inhibition zone (IZ): > 15 mm
[9]; 0.5% content of the solution
  inhibition zone (IZ): 7-9 mm
[9]; 1% content of the solution
  inhibition zone (IZ): 15 mm
[9]; 2% content of the solution
  inhibition zone (IZ): 15 mm
[10]; [15]
  inhibition zone: 17 mm
[10]; [16]
  inhibition zone: 22 mm
[10]; [17]
  inhibition zone: 18 mm
[11]; [15]
  inhibition zone: 28 mm
[11]; [16]
  inhibition zone: 32 mm
[11]; [17]
  inhibition zone: 24 mm
[14]
  biocidal activity: very good biocidal activity
